The source made the active and inactive calls. No cut-off for these calls is given here.

The species named for assay [1] is Rattus norvegicus. The assay can be described thus: Inhibitory activity against peroxidation of rat cardiac membrane liposomes. The class given is functional.
The target of assay [2] is T1, Polyunsaturated fatty acid 5-lipoxygenase (Rattus norvegicus, UniProt P12527).
T1 sequence (P12527 whole entry): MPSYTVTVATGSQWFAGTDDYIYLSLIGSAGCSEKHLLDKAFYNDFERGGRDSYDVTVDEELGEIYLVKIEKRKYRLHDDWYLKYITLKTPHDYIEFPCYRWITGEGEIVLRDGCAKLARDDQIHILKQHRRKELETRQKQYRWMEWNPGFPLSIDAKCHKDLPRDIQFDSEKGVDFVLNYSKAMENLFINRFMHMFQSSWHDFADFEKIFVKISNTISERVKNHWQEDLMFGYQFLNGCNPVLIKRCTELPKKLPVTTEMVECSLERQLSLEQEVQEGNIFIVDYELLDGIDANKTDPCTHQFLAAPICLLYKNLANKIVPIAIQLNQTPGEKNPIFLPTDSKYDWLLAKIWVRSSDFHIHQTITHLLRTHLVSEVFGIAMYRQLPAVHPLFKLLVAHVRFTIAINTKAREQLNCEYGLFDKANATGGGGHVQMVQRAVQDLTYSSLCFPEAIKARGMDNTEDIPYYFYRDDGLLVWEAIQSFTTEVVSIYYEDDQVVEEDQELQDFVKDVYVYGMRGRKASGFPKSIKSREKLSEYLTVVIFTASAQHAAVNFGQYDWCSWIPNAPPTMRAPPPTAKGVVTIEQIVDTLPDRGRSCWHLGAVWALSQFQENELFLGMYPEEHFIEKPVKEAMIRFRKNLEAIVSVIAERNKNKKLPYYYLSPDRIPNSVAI
Briefly: Inhibition of 5-lipoxygenase from rat basophilic leukemia(RBL-1) cells. The class given is cell-based.

Assay [3] concerns Rattus norvegicus. Briefly: In vivo inhibitory activity against acetic acid-induced colitis of rat at 10 mg/kg upon peroral administration. The conditions noted are these: route oral. The class given is functional.
The species named for assay [4] is Rattus norvegicus. Briefly: Inhibitory activity against peroxidation of rat cardiac membrane liposomes at 1 uM concentration. The class given is functional. The conditions noted are these: Microsome.
Assay [5] relates to Rattus norvegicus. The assay can be described thus: In vivo inhibitory activity against acetic acid-induced colitis of rat at 1 mg/kg upon peroral administration. The assay is classed as functional. As to conditions: route oral.
Assay [6] is filed under the species Homo sapiens. Briefly: Inhibitory activity against interleukin-1 production by LPS-stimulated human monocytes; IC50 range=4-8 uM. The class given is functional.
The test system of assay [7] is Rattus norvegicus. The assay can be described thus: Inhibition of neutrophil infiltration at 100 mg/kg in rats. The class given is functional.
The subject of assay [8] is Rattus norvegicus. The assay can be described thus: Inhibitory activity in rat colitis model at an oral dose of 10 mg/kg; IA means inactive. The assay is classed as functional, organism-based. Also on record: dose 10 mg/kg.
The species entered for assay [9] is Mus musculus. Briefly: Myeloperoxidase activity was determined as a measure of neutrophil infiltration at a 0.1 mg dose in the AA treated mice. The assay is classed as functional.
Assay [10] is filed under the species Mus musculus. Briefly: Myeloperoxidase activity was determined as a measure of neutrophil infiltration at the 0.4 mg dose in the TPA treated mice. The class given is functional.
Assay [11] relates to Mus musculus. Briefly: Inhibition of the AA-induced edema in mouse ear inflammation test at 1 mg. The class given is functional.
A further assay has as its system Mononuclear cell line. The assay can be described thus: In vitro inhibitory activity against interleukin-1-beta biosynthesis by isolated human mononuclear cells at 10 uM. The class given is functional.
The species named for assay [12] is Rattus norvegicus. Briefly: Inhibition of LTB4 biosynthesis in ionophore-stimulated rat peritoneal macrophages. The class given is functional.
For assay [13], the species on record is Rattus norvegicus. Briefly: Inhibition of PGE-2 biosynthesis in ionophore stimulated rat peritoneal macrophages. The class given is functional.
The subject of assay [14] is Rattus norvegicus. The assay can be described thus: Percent reduction of neutrophil accumulatiom with an minimum effective dose of 100 ug/kg when administered orally twice daily for two days before induction of acetic acid-induced colitis in the rat. The class given is functional.
For assay [15], the system named is Rattus norvegicus. Briefly: Percent reduction of neutrophil accumulatiom with an minimum effective dose of 1 mg/kg when administered orally twice daily for two days before induction of acetic acid-induced colitis in the rat. The assay is classed as functional. As to conditions: route oral.
For assay [16], the system named is Rattus norvegicus. The assay can be described thus: Reduction of erythema at 1 mg/kg in acetic acid-induced colitis of the rat. The class given is functional.
Assay [17] deals with Rattus norvegicus. The assay can be described thus: Reduction of necrosis at 1 mg/kg in acetic acid-induced colitis of the rat. The assay is classed as functional.
For assay [18], the system named is Mus musculus. Briefly: Inhibition of the TPA-induced edema in mouse ear inflammation test at a topical dose of 0.4 mg. The class given is functional.
For assay [19], the species on record is Homo sapiens. The assay can be described thus: Inhibition of LTB4 biosynthesis in human neutrophils.

In the case of `CCCc1cc(C(=O)O)ccc1OCCCCCCc1cccc(O)c1O`, in the assay listed under Rattus norvegicus [1], the midpoint of inhibition, the IC50, lay at 0.68 µM.

In the case of `CCCc1c(OCCCc2cccc(O)c2O)ccc(C(=O)O)c1O`, the IC50 in assay [2] is 0.17 µM. The compound also had an inhibition in vivo at 10 mg/kg in the assay on Rattus norvegicus [3] of 54%. For the same compound, the inhibition in the assay filed under Rattus norvegicus [4] was 35%.

`O=C(O)c1ccc(OCCCCCCc2cccc(O)c2O)cc1O` yielded an IC50 in [2] of 0.3 µM. The compound further showed an inhibition in vivo at 1 mg/kg in the assay on Rattus norvegicus [5] of 95%. The inhibition in the assay listed under Rattus norvegicus [4] stood at 33%.

For the compound `CC(Cc1ccc(O)c(O)c1)C(C)Cc1ccc(O)c(O)c1` (configuration not stated) [NORDIHYDROGUAIARETIC ACID], the IC50 in the assay listed under Homo sapiens [6] is 8 µM; in the assay listed under Rattus norvegicus [1], 0.1 µM. Besides, the inhibition in vivo at 100 mg/kg in the assay with Rattus norvegicus [7] is 70%. Also, in the assay on Rattus norvegicus [8], the inhibition entry was “inactive”.

As for `CCCc1c(OCCCCCCCCCCc2cccc(O)c2O)ccc(C(=O)O)c1O`, it took 0.4 µM to reach half-maximal inhibition in the assay filed under Rattus norvegicus [1] (IC50).

Consider `CCCc1c(OCCc2cccc(O)c2O)ccc(C(=O)O)c1O`, for which the IC50 in [2] is 0.25 µM. In the assay listed under Rattus norvegicus [4], this compound returned an inhibition of 17%.

With `CCCc1c(OCCCCc2cccc(O)c2O)ccc(C(=O)O)c1O`, half-maximal inhibition in the assay listed under Rattus norvegicus [1] (IC50) was put at 0.5 µM. The same compound yielded an inhibition in vivo at 10 mg/kg with Rattus norvegicus [3] of 73%.

In turn, `CCCc1c(OCCCCCCc2cccc(O)c2O)ccc(C(=O)O)c1O` gave an IC50 in the assay listed under Rattus norvegicus [1] of 0.3 µM. This compound also had an inhibition in vivo at 10 mg/kg in the assay with Rattus norvegicus [3] of 89%.

With `CCCc1c(OCCCCCc2cccc(O)c2O)ccc(C(=O)O)c1O`, the Inhibition in the assay listed under Mus musculus [9] was found to be 86%; in the assay listed under Mus musculus [10], 88%; with Mus musculus [11] it was 47%; in the assay on Mus musculus [18] it was 26%. The compound also yielded an inhibition at 10 µM with Mononuclear cell line of 40%. The IC50 in the assay listed under Rattus norvegicus [12] is 0.6 µM; in the assay listed under Rattus norvegicus [13], 35 µM; in the assay filed under Homo sapiens [19] it was 1 µM. In addition, testing at 1 mg/kg with Rattus norvegicus [5] gave an inhibition in vivo of 88%. The Reduction with Rattus norvegicus [14] is 38%; in the assay on Rattus norvegicus [15], 88%; in the assay with Rattus norvegicus [16], 55%; with Rattus norvegicus [17], 77%.

In turn, `O=C(O)c1ccc(OCCCCCCc2cccc(O)c2O)cc1` gave an IC50 in [2] of 0.2 µM. The inhibition in vivo at 10 mg/kg in the assay with Rattus norvegicus [3] stood at 89%. Besides, the inhibition in the assay listed under Rattus norvegicus [4] worked out at 9%.

With `CCCc1c(OCCCCCCCCc2cccc(O)c2O)ccc(C(=O)O)c1O`, the concentration for half-maximal inhibition (IC50) in assay [2] was determined as 0.09 µM; in the assay listed under Rattus norvegicus [1], 0.3 µM. This compound had an inhibition in vivo at 10 mg/kg in the assay on Rattus norvegicus [3] of 35%.

The values above are taken from ChEMBL document CHEMBL1127993, “4-[5-(2,3-dihydroxyphenyl)pentyloxy]-2-hydroxy-3-propylbenzoic acid (Ro 24-0553): an orally active 5-lipoxygenase inhibitor with antiinflammatory activity” (Bioorg Med Chem Lett, 1994).
